Patent US20060069132A1, “Azolecarboxamide herbicides” (priority 2004, published 2006)

Experiments:
barnyardgrass [1] = experiment: Test B pre-/postemergence herbicide test; format: in vivo, Echinochloa crus-galli; conditions: for Plant response rating, Barnyardgrass: preemergence; for Barnyardgrass plant response rating: postemergence, visual rating, scale 0 (no effect) to 100 (complete control)
Method in brief: (§1)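 Test chemicals in a non-phytotoxic solvent mixture with surfactant were applied preemergence to seeded species and postemergence to plants 2-18 cm tall (1- to 4-leaf stage); rice and barnyardgrass were also tested in a flooded paddy at the 2-leaf stage. Visual rating versus controls after 13-15 days in greenhouse, scale 0 (no effect) to 100 (complete control).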

Surinam grass = experiment: Test B pre-/postemergence herbicide test; format: in vivo, Urochloa decumbens; conditions: for Plant response rating, Surinam Grass: preemergence; for Surinam Grass plant response rating: postemergence, visual rating, scale 0 (no effect) to 100 (complete control)
Method in brief: (§2)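 Plants compared with untreated controls 13–15 days post-treatment and given a visual 0–100 injury score. Applications: preemergence to seeds; postemergence at 1- to 4-leaf (2–18 cm); paddy species flooded, 2-leaf stage. Vehicle non-phytotoxic, surfactant included.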

cocklebur = experiment: Test B pre-/postemergence herbicide test; format: in vivo, Xanthium strumarium; conditions: for Plant response rating, Cocklebur: preemergence; for Cocklebur plant response rating: postemergence, visual rating, scale 0 (no effect) to 100 (complete control)
Method in brief: as §1

corn = experiment: Test B pre-/postemergence herbicide test; format: in vivo, Zea mays; conditions: for Plant response rating, Corn: preemergence; for Corn plant response rating: postemergence, visual rating, scale 0 (no effect) to 100 (complete control)
Method in brief: as §2

large crabgrass = experiment: Test B pre-/postemergence herbicide test; format: in vivo, Digitaria sanguinalis; conditions: for Plant response rating, Crabgrass, Large: preemergence; for Crabgrass, Large plant response rating: postemergence, visual rating, scale 0 (no effect) to 100 (complete control)
Method in brief: as §2

giant foxtail = experiment: Test B pre-/postemergence herbicide test; format: in vivo, Setaria faberi; conditions: for Plant response rating, Foxtail, Giant: preemergence; for Foxtail, Giant plant response rating: postemergence, visual rating, scale 0 (no effect) to 100 (complete control)
Method in brief: as §2

lambsquarters = experiment: Test B pre-/postemergence herbicide test; format: in vivo, Chenopodium album; conditions: for Plant response rating, Lambsquarters: preemergence; for Lambsquarters plant response rating: postemergence, visual rating, scale 0 (no effect) to 100 (complete control)
Method in brief: as §2

morningglory = experiment: Test B pre-/postemergence herbicide test; format: in vivo, Ipomoea coccinea; conditions: for Plant response rating, Morningglory: preemergence; for Morningglory plant response rating: postemergence, visual rating, scale 0 (no effect) to 100 (complete control)
Method in brief: as §1

velvetleaf = experiment: Test B pre-/postemergence herbicide test; format: in vivo, Abutilon theophrasti; conditions: for Plant response rating, Velvetleaf: preemergence; for Velvetleaf plant response rating: postemergence, visual rating, scale 0 (no effect) to 100 (complete control)
Method in brief: as §2

blackgrass = experiment: Test B postemergence herbicide test; format: in vivo, Alopecurus myosuroides; conditions: postemergence, visual rating, scale 0 (no effect) to 100 (complete control)
Method in brief: (§3)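 Paddy species grown to the 2-leaf stage under flooding; blackgrass sprayed postemergence at 2–18 cm (1- to 4-leaf stage). Plants kept in a greenhouse for 13 to 15 days, then visually rated against controls on 0 (no effect) to 100 (complete control).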

wheat = experiment: Test B postemergence herbicide test; format: in vivo, Triticum aestivum; design: key to Wheat plant response rating: 0 = no effect, 100 = complete control; conditions: postemergence, 500 g ai/ha; visual rating, scale 0 (no effect) to 100 (complete control)
Method in brief: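 Each value is a visual 0–100 response rating taken against controls 13 to 15 days after treatment in the greenhouse. Plants received formulated chemical postemergence at the 1- to 4-leaf stage or, in flooded paddy, at the 2-leaf stage.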

rice = experiment: Test B flooded paddy test; format: in vivo, Oryza sativa; conditions: 1000 g ai/ha, visual rating, scale 0 to 100 (0 no effect, 100 complete control), 13 to 15 days
Method in brief: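 Formulated test chemicals went onto postemergence plants measuring 2 to 18 cm, at one to four leaves. For the paddy assay, species had reached two leaves. Scoring took place 13–15 days later by eye, relative to untreated plants, using 0 for no effect up to 100 for full control.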

[2] = tested on: small flower umbrella sedge; experiment: Test B flooded paddy test; format: in vivo, Cyperus difformis; conditions: 1000 g ai/ha, visual rating, scale 0 to 100 (0 no effect, 100 complete control), 13 to 15 days
Method in brief: as §3

ducksalad = experiment: Test B flooded paddy test; format: in vivo, Heteranthera limosa; conditions: 1000 g ai/ha, visual rating, scale 0 to 100 (0 no effect, 100 complete control), 13 to 15 days
Method in brief: as §3

barnyardgrass [3] = experiment: Test B flooded paddy test; format: in vivo, Echinochloa crus-galli; conditions: 1000 g ai/ha, visual rating, scale 0 to 100 (0 no effect, 100 complete control), 13 to 15 days
Method in brief: as §3

[4] = 500 g ai/ha, visual rating 0-100, 0 no effect, 100 complete control
[5] = 125 g ai/ha, 0 to 100 scale, 0 is no effect, 100 is complete control

CCN(CC)C(=O)c1cccc(NC(=O)c2cc(C(C)(C)C)nn2CC)n1 [Compound 145]
Plant response rating, Barnyardgrass (barnyardgrass [1]; [4]): 100 | Barnyardgrass plant response rating (barnyardgrass [1]; 125 g ai/ha): 0 | Barnyardgrass plant response rating (barnyardgrass [1]; 500 g ai/ha): 40 | Plant response rating, Barnyardgrass (barnyardgrass [1]; [5]): 70 | Plant response rating, Surinam Grass (Surinam grass; [4]): 80 | Surinam Grass plant response rating (Surinam grass; 125 g ai/ha): 20 | Surinam Grass plant response rating (Surinam grass; 500 g ai/ha): 20 | Plant response rating, Surinam Grass (Surinam grass; [5]): 30 | Plant response rating, Cocklebur (cocklebur; [4]): 20 | Cocklebur plant response rating (cocklebur; 125 g ai/ha): 0 | Cocklebur plant response rating (cocklebur; 500 g ai/ha): 30 | Plant response rating, Cocklebur (cocklebur; [5]): 0 | Plant response rating, Corn (corn; [4]): 10 | Corn plant response rating (corn; 125 g ai/ha): 10 | Corn plant response rating (corn; 500 g ai/ha): 20 | Plant response rating, Corn (corn; [5]): 0 | Plant response rating, Crabgrass, Large (large crabgrass; [4]): 100 | Crabgrass, Large plant response rating (large crabgrass; 125 g ai/ha): 10 | Crabgrass, Large plant response rating (large crabgrass; 500 g ai/ha): 10 | Plant response rating, Foxtail, Giant (giant foxtail; [4]): 100 | Foxtail, Giant plant response rating (giant foxtail; 125 g ai/ha): 30 | Foxtail, Giant plant response rating (giant foxtail; 500 g ai/ha): 40 | Plant response rating, Foxtail, Giant (giant foxtail; [5]): 80 | Plant response rating, Lambsquarters (lambsquarters; [4]): 100 | Lambsquarters plant response rating (lambsquarters; 125 g ai/ha): 60 | Lambsquarters plant response rating (lambsquarters; 500 g ai/ha): 70 | Plant response rating, Lambsquarters (lambsquarters; [5]): 80 | Plant response rating, Morningglory (morningglory; [4]): 40 | Morningglory plant response rating (morningglory; 125 g ai/ha): 0 | Morningglory plant response rating (morningglory; 500 g ai/ha): 20 | Plant response rating, Morningglory (morningglory; [5]): 30 | Plant response rating, Velvetleaf (velvetleaf; [4]): 100 | Velvetleaf plant response rating (velvetleaf; 125 g ai/ha): 50 | Velvetleaf plant response rating (velvetleaf; 500 g ai/ha): 60 | Plant response rating, Velvetleaf (velvetleaf; [5]): 80 | Blackgrass plant response rating (blackgrass; 125 g ai/ha): 10 | Blackgrass plant response rating (blackgrass; 500 g ai/ha): 10 | Wheat plant response rating (wheat): 20 | Rice plant response rating (rice): 40 | Sedge, Umbrella plant response rating [2]: 90 | Ducksalad plant response rating (ducksalad): 70 | Barnyardgrass plant response rating (barnyardgrass [3]): 70

CCn1nc(C(C)(C)C)cc1C(=O)Nc1cccc(C(=O)NC2CC2)n1 [Compound 146]
Plant response rating, Barnyardgrass (barnyardgrass [1]; [4]): 90 | Barnyardgrass plant response rating (barnyardgrass [1]; 125 g ai/ha): 20 | Barnyardgrass plant response rating (barnyardgrass [1]; 500 g ai/ha): 60 | Plant response rating, Barnyardgrass (barnyardgrass [1]; [5]): 40 | Plant response rating, Surinam Grass (Surinam grass; [4]): 30 | Surinam Grass plant response rating (Surinam grass; 125 g ai/ha): 10 | Surinam Grass plant response rating (Surinam grass; 500 g ai/ha): 30 | Plant response rating, Surinam Grass (Surinam grass; [5]): 10 | Plant response rating, Cocklebur (cocklebur; [4]): 0 | Cocklebur plant response rating (cocklebur; 125 g ai/ha): 20 | Cocklebur plant response rating (cocklebur; 500 g ai/ha): 80 | Plant response rating, Cocklebur (cocklebur; [5]): 0 | Plant response rating, Corn (corn; [4]): 0 | Corn plant response rating (corn; 125 g ai/ha): 10 | Corn plant response rating (corn; 500 g ai/ha): 30 | Plant response rating, Corn (corn; [5]): 0 | Plant response rating, Crabgrass, Large (large crabgrass; [4]): 100 | Crabgrass, Large plant response rating (large crabgrass; 125 g ai/ha): 10 | Crabgrass, Large plant response rating (large crabgrass; 500 g ai/ha): 20 | Plant response rating, Crabgrass, Large (large crabgrass; [5]): 10 | Plant response rating, Foxtail, Giant (giant foxtail; [4]): 90 | Foxtail, Giant plant response rating (giant foxtail; 125 g ai/ha): 20 | Foxtail, Giant plant response rating (giant foxtail; 500 g ai/ha): 20 | Plant response rating, Foxtail, Giant (giant foxtail; [5]): 10 | Plant response rating, Lambsquarters (lambsquarters; [4]): 100 | Lambsquarters plant response rating (lambsquarters; 125 g ai/ha): 80 | Lambsquarters plant response rating (lambsquarters; 500 g ai/ha): 90 | Plant response rating, Lambsquarters (lambsquarters; [5]): 80 | Plant response rating, Morningglory (morningglory; [4]): 10 | Morningglory plant response rating (morningglory; 125 g ai/ha): 0 | Morningglory plant response rating (morningglory; 500 g ai/ha): 20 | Plant response rating, Morningglory (morningglory; [5]): 0 | Plant response rating, Velvetleaf (velvetleaf; [4]): 90 | Velvetleaf plant response rating (velvetleaf; 125 g ai/ha): 50 | Velvetleaf plant response rating (velvetleaf; 500 g ai/ha): 60 | Plant response rating, Velvetleaf (velvetleaf; [5]): 20 | Blackgrass plant response rating (blackgrass; 125 g ai/ha): 10 | Blackgrass plant response rating (blackgrass; 500 g ai/ha): 20 | Wheat plant response rating (wheat): 10 | Rice plant response rating (rice): 40 | Sedge, Umbrella plant response rating [2]: 90 | Ducksalad plant response rating (ducksalad): 80 | Barnyardgrass plant response rating (barnyardgrass [3]): 60

CCNC(=O)c1cc(C)nc(NC(=O)c2cc(C(C)(C)C)nn2CC)c1 [Compound 149]
Plant response rating, Barnyardgrass (barnyardgrass [1]; [4]): 90 | Barnyardgrass plant response rating (barnyardgrass [1]; 125 g ai/ha): 0 | Barnyardgrass plant response rating (barnyardgrass [1]; 500 g ai/ha): 30 | Plant response rating, Barnyardgrass (barnyardgrass [1]; [5]): 80 | Plant response rating, Surinam Grass (Surinam grass; [4]): 80 | Surinam Grass plant response rating (Surinam grass; 125 g ai/ha): 10 | Surinam Grass plant response rating (Surinam grass; 500 g ai/ha): 20 | Plant response rating, Surinam Grass (Surinam grass; [5]): 40 | Plant response rating, Cocklebur (cocklebur; [4]): 0 | Cocklebur plant response rating (cocklebur; 125 g ai/ha): 20 | Cocklebur plant response rating (cocklebur; 500 g ai/ha): 100 | Plant response rating, Cocklebur (cocklebur; [5]): 0 | Plant response rating, Corn (corn; [4]): 50 | Corn plant response rating (corn; 125 g ai/ha): 10 | Corn plant response rating (corn; 500 g ai/ha): 30 | Plant response rating, Corn (corn; [5]): 10 | Plant response rating, Crabgrass, Large (large crabgrass; [4]): 100 | Crabgrass, Large plant response rating (large crabgrass; 125 g ai/ha): 10 | Crabgrass, Large plant response rating (large crabgrass; 500 g ai/ha): 30 | Plant response rating, Crabgrass, Large (large crabgrass; [5]): 90 | Plant response rating, Foxtail, Giant (giant foxtail; [4]): 100 | Foxtail, Giant plant response rating (giant foxtail; 125 g ai/ha): 10 | Foxtail, Giant plant response rating (giant foxtail; 500 g ai/ha): 10 | Plant response rating, Foxtail, Giant (giant foxtail; [5]): 60 | Plant response rating, Lambsquarters (lambsquarters; [4]): 100 | Lambsquarters plant response rating (lambsquarters; 125 g ai/ha): 20 | Lambsquarters plant response rating (lambsquarters; 500 g ai/ha): 60 | Plant response rating, Lambsquarters (lambsquarters; [5]): 60 | Plant response rating, Morningglory (morningglory; [4]): 40 | Morningglory plant response rating (morningglory; 125 g ai/ha): 20 | Morningglory plant response rating (morningglory; 500 g ai/ha): 40 | Plant response rating, Morningglory (morningglory; [5]): 20 | Plant response rating, Velvetleaf (velvetleaf; [4]): 40 | Velvetleaf plant response rating (velvetleaf; 125 g ai/ha): 10 | Velvetleaf plant response rating (velvetleaf; 500 g ai/ha): 50 | Plant response rating, Velvetleaf (velvetleaf; [5]): 0 | Blackgrass plant response rating (blackgrass; 125 g ai/ha): 10 | Blackgrass plant response rating (blackgrass; 500 g ai/ha): 40 | Wheat plant response rating (wheat): 10 | Rice plant response rating (rice): 50 | Sedge, Umbrella plant response rating [2]: 60 | Ducksalad plant response rating (ducksalad): 90 | Barnyardgrass plant response rating (barnyardgrass [3]): 70
